Results published in PMC11678869, “Functional Role of Odorant-Binding Proteins in Response to Sex Pheromone Component Z8-14:Ac in Grapholita molesta (Busck)” (Insects, 2024).
Like-named read-outs stand apart in the source and are kept apart here.

Columns and labels:
[1] = target: rGmolGOBP1 (Grapholita molesta, UniProt H9XTU5); experiment: Fluorescence competitive binding assay with 1-NPN probe; settings: for Ki: calculated from IC50 and Kd of 1-NPN
Description: (§1) Previous researchers have successfully expressed rGmolPBP1, rGmolPBP2, rGmolPBP3, rGmolGOBP1, and rGmolGOBP2 proteins using prokaryotic expression systems. In this article, the DNA sequences of these five GmolPBPs and GmolGOBPs, with the signal peptides removed and restriction sites on both ends, were inserted into the expression vector pET28a(+) linearized with the same restriction enzyme. These vectors were then transformed into Escherichia coli BL21(DE3) and induced by isopropyl-β-d-thiogalactoside (IPTG). Since all five recombinant proteins were expressed in inclusion bodies, they were denatured using 8 M urea and then renatured using a cysteine/cystine REDOX system. The reduced recombinant proteins were purified using an Ni-NTA His Bind Resin column (7Sea Pharmatech Co., Ltd., Shanghai, China). Non-target proteins were washed off with washing buffer (20 mM Tris-HCl (pH 7.4), 20 mM imidazole, 1 mM PMSF, and 250 mM NaCl), and then the target proteins were eluted with elution buffer (20 mM Tris-HCl (pH 7.4), 1 mM PMSF, and 250 mM NaCl) with an increasing concentration of imidazole (50, 100, and 200 mM). Five milliliters of eluents with high target protein content and low levels of contaminants were collected and placed in dialysis tubing (Coolaber, Beijing, China) with a molecular weight cut-off of 3.5 kDa to remove NaCl and imidazole. The purified soluble proteins were stored at −80 °C before use.
(§2) The binding affinities of three rGmolPBPs and two rGmolGOBPs for Z8-14:Ac were determined using an F-2700 fluorescence spectrophotometer (Hitachi, Tokyo, Japan). First, we measured the dissociation constants (Kd) of the rGmolPBPs (or rGmolGOBPs) binding to 1−NPN. Each protein was diluted to 2 μM with 20 mM Tris-HCl buffer (pH 7.4); then, 2 mL of the protein solution was transferred to a quartz cuvette and titrated with 1 mM 1−NPN to a final concentration of 1–18 μM. As the doses of 1−NPN were increased, the increasing amplitude of the fluorescence intensity decreased, and finally, the binding of the protein to 1−NPN reached saturation. The Kd values were calculated using the nonlinear regression method and the Scatchard equation. Second, we measured the inhibitory constant (Ki) of Z8-14:Ac’s competitive binding with each rGmolPBP (or rGmolGOBP) from the protein/1−NPN complex. The initial fluorescence intensity values were measured after a 2 min reaction in 2 mL solution of 20 mM Tris-HCl (pH 7.4) containing 2 µM rGmolPBP (or rGmolGOBP) protein and 2 µM 1−NPN. Then, the solution was titrated with aliquots of 1 mM Z8-14:Ac to obtain final concentrations in the range of 1–14 µM, and the fluorescence intensity value of each reaction was recorded. The Ki values were calculated using the following equation: Ki = [IC50]/(1 + [1 − NPN]/Kd) where IC50 is the concentration of Z8-14:Ac when half of the initial fluorescence intensity value of the rGmolPBP (or GmolGOBP)/1−NPN complex is replaced, [1 − NPN] represents the concentration of free 1−NPN, and Kd is the dissociation constant of the rGmolPBP (or GmolGOBP)/1−NPN complex.

[2] = target: rGmolGOBP2 (Grapholita molesta, UniProt H9XTU6); experiment: as above
Chain of rGmolGOBP2 (H9XTU6 entry or part of it): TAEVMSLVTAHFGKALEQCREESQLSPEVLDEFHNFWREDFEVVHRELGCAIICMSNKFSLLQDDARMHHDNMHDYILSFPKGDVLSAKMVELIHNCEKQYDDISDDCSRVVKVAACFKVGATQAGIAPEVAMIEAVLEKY
Description: as §1, §2

[3] = target: rGmolPBP1 (Grapholita molesta, UniProt A0A2R4SBD6); experiment: as above
Chain of rGmolPBP1 (A0A2R4SBD6 entry or part of it): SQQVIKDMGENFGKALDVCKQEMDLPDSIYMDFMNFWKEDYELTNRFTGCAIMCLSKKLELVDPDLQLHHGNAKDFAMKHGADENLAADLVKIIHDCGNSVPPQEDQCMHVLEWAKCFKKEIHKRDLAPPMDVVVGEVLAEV
Description: as §1, §2

[4] = target: rGmolPBP2 (wild-type) (Grapholita molesta, UniProt A0A059VC28); experiment: as above
Chain of rGmolPBP2 (wild-type) (A0A059VC28 entry or part of it): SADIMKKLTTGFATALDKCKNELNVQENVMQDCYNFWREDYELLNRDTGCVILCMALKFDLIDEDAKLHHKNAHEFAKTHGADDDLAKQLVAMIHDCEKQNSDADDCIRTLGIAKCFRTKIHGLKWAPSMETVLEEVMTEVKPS
Description: as §1, §2

[5] = target: rGmolPBP3 (Grapholita molesta, UniProt A0A059VBP3); experiment: as above
Chain of rGmolPBP3 (A0A059VBP3 entry or part of it): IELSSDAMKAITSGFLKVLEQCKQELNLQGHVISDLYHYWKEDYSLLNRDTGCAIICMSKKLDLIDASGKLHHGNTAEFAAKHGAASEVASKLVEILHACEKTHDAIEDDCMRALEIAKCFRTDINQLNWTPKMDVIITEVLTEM
Description: as §1, §2

[6] = test system: OFM males; experiment: Field trapping with delta traps, pear orchard; format: in vivo, Grapholita molesta; settings: for Inhibition Rate of OFM Males: vs 100:4:0
Experimental: To determine the inhibitory effects on OFM male adults and the impact on the trapping effects of PFM male adults, varying amounts of Z8-14:Ac (0, 5, 10, 25, 50, 75, 100, 125, 150 μg) or Z10-14:Ac (0, 25, 50, 100, 150, 250, 350, 450, and 550 μg) were added to rubber septa loaded with a constant dosage of the main pheromone (500 μg of Z8-12:Ac and 20 μg of E8-12:Ac) of the PFM. Trapping experiments of Z8-14:Ac were carried out in peach and pear orchards in Yan’an and Xinjiang (China), respectively. Trapping tests of Z10-14:Ac were performed in pear orchards in Xinjiang (China). Each orchard had nine plots, with three plots in one field. Each plot consisted of a linear arrangement of traps loaded with a constant dosage of the main pheromones and different percentages of the secondary pheromone Z8-14:Ac or Z10-14:Ac of the PFM. Plots in the same field were placed 30 m apart, and fields were ≥1 km apart. The traps were hung 1.4 m from the ground on a suspension bracket between two rows of peach or pear trees from 10 June to 25 July 2021 in Xinjiang and from 15 June to 30 July 2021 in Yan’an. The positions of the traps within the plot were randomly arranged. Every 5 days, counts were taken, and the traps were rotated to the adjacent position to avoid any potential position effects. The septa loaded with sex pheromone components were replaced with new ones after every 15 days of suspension. The data were analyzed using a one-way ANOVA, and the differences in the average trapping of OFM and PFM males using sex attractants containing different amounts of Z8-14:Ac or Z10-14:Ac were further analyzed using Tukey’s HSD test, both of which were performed using SPSS 23.0.

[7] = 2 μM protein, 2 μM 1-NPN, pH 7.4, read-out: IC50 (displacement of 1-NPN)
[8] = calculated from IC50 and Kd of 1-NPN
[9] = pear orchard, Z8-12:Ac/E8-12:Ac/Z8-14:Ac 500/20/5 μg (100:4:1)
[10] = pear orchard, Z8-12:Ac/E8-12:Ac/Z8-14:Ac 500/20/10 μg (100:4:2)
[11] = pear orchard, Z8-12:Ac/E8-12:Ac/Z8-14:Ac 500/20/25 μg (100:4:5)
[12] = pear orchard, Z8-12:Ac/E8-12:Ac/Z8-14:Ac 500/20/50 μg (100:4:10)
[13] = pear orchard, Z8-12:Ac/E8-12:Ac/Z8-14:Ac 500/20/75 μg (100:4:15)
[14] = pear orchard, Z8-12:Ac/E8-12:Ac/Z8-14:Ac 500/20/100 μg (100:4:20)
[15] = pear orchard, Z8-12:Ac/E8-12:Ac/Z8-14:Ac 500/20/125 μg (100:4:25)
[16] = pear orchard, Z8-12:Ac/E8-12:Ac/Z8-14:Ac 500/20/150 μg (100:4:30)

Chain of rGmolGOBP1 (H9XTU5 entry or part of it): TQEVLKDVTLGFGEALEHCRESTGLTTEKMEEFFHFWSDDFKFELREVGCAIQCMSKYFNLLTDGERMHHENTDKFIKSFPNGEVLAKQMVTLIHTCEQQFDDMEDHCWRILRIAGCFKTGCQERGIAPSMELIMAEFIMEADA

## CCCCC/C=C\CCCCCCCOC(C)=O [Z8-14:Ac, (Z)-8-tetradecenyl acetate]
[1]; [7]
  IC50: > 14000 nM
[1]
  Ki: could not be calculated
[1]; read-out: Ki
  Ki: > 14000 nM
[2]; [7]
  IC50: 3530 ± 220 nM
[2]; [8]
  Ki: 2860 ± 180 nM
[3]; [7]
  IC50: 2930 ± 70 nM
[3]; [8]
  Ki: 1660 ± 40 nM
[4]; [7]
  IC50: 1260 ± 40 nM
[4]; [8]
  Ki: 660 ± 20 nM
[5]; [7]
  IC50: 2780 ± 320 nM
[5]; [8]
  Ki: 2560 ± 270 nM
[6]; field trials, varying ratios of Z8-14:Ac (1% to 30%) added to Z8-12:Ac and E8-12:Ac
  maximum reduction of the capture of OFM males: up to 96.54%
[6]; [9]
  Total OFM Males/Trap: 59.24 ± 10.14 b Males/Trap
  Inhibition Rate of OFM Males: 65.04%
[6]; [10]
  Total OFM Males/Trap: 61.31 ± 7.21 b Males/Trap
  Inhibition Rate of OFM Males: 63.82%
[6]; [11]
  Total OFM Males/Trap: 21.36 ± 6.22 c Males/Trap
  Inhibition Rate of OFM Males: 87.40%
[6]; [12]
  Total OFM Males/Trap: 12.05 ± 0.91 c Males/Trap
  Inhibition Rate of OFM Males: 92.89%
[6]; [13]
  Total OFM Males/Trap: 8.95 ± 2.69 c Males/Trap
  Inhibition Rate of OFM Males: 94.72%
[6]; [14]
  Total OFM Males/Trap: 12.74 ± 6.57 c Males/Trap
  Inhibition Rate of OFM Males: 92.48%
[6]; [15]
  Total OFM Males/Trap: 5.86 ± 1.50 c Males/Trap
  Inhibition Rate of OFM Males: 96.54%
[6]; [16]
  Total OFM Males/Trap: 10.33 ± 2.98 c Males/Trap
  Inhibition Rate of OFM Males: 93.90%
[6]; pear orchard, adding 5–30% of Z8-14:Ac to Z8-12:Ac and E8-12:Ac
  reduction of the number of OFM males caught: more than 86%
[6]; pear orchards, adding 1–2% of Z8-14:Ac to Z8-12:Ac and E8-12:Ac (100:4)
  reduction of the capture of OFM males: 63.82–65.04%
